Test results as given in US7411067B2, “Crystalline forms of gatifloxacin” (Teva Pharmaceutical Industries Ltd, priority 2002, dated 2008).

Columns and labels:
[1] = Exposure of powder as a thin layer in a controlled humidity cell; resulting crystalline form by x-ray diffraction; assay type: physicochemical; conditions: 200 mg powder as thin layer
Procedure: As used herein in connection with the present invention, x-ray diffraction refers to x-ray diffraction by the powder diffraction technique. X-ray powder diffraction analysis was performed using a Scintag powder diffractometer with variable goniometer, a Cu source, and a solid state detector. A standard round aluminum sample holder with zero background quartz plate was used. Samples were scanned from 2° to 40° 2θ at 3° per minute in the continuous scan mode. Reflections are reported as peak maxima in the intensity vs. 2θ plots, and are subject to the normal experimental error (uncertainty). Samples were promptly analyzed “as is”.
In another embodiment, the present invention provides a method of making a mixture of novel crystalline form O and prior-art sesqihydrate. The ratios will depend, inter alia, on the conditions of treatment. The mixtures can be made by exposing prior art forms omega or TE, or crystalline form C (characterized by x-ray reflections at 7.2°, 10.8°, 15.8°, 21.8°, and 26.2°±0.2° 2θ) to an atmosphere having a relative humidity of at least about 60% (form c), or at least about 80% (form TE and omega) for an exposing time. The exposing time will generally be between about 24 hours and two weeks.
Preferably, the form omega, TE, or C is exposed as a thin layer of particles or crystals to facilitate diffusion of gasses and vapors. Preferably, the exposing is at ambient temperature.
The present invention can be further illustrated with the following non-limiting examples. In the following examples, the polymorphic or pseudopolymorphic form of gatifloxacin was determined by x-ray diffraction.
Gatifloxacin in form Ω (200 mg powder) was spread as a thin layer in a container having short vertical walls. The container was placed in a controlled humidity cell at 100% RH for 1 week.

[2] = reported in U.S. Pat. No. 5,880,283; cited from earlier work
[3] = among the crystalline forms, per WO 02/22126 A1; cited from earlier work
[4] = room temperature, among the crystalline forms, per WO 02/22126 A1; cited from earlier work
[5] = reported in U.S. Pat. No. 5,880,283; cited from earlier work; remark: listed apart in the source

SMILES: COc1c(N2CCNC(C)C2)c(F)cc2c(=O)c(C(=O)O)cn(C3CC3)c12 (stereo not drawn) [form C, gatifloxacin]
- crystalline form found after humidity exposure ([1]; 60% RH, two weeks): approximately 80:20 mixture by weight of form C and form O
- crystalline form found after humidity exposure ([1]; 80% RH, two weeks): approximately 30:70 mixture by weight of form O and sesquihydrate
- crystalline form found after humidity exposure ([1]; 100% RH, two weeks): mixture of form O and sesquihydrate

SMILES: COc1c(N2CCNC(C)C2)c(F)cc2c(=O)c(C(=O)O)cn(C3CC3)c12 (stereo not drawn) [form TE, gatifloxacin]
- crystalline form found after humidity exposure ([1]; 80% RH, two weeks): approximately equal weight mixture (1:1) of form O and sesquihydrate
- crystalline form found after humidity exposure ([1]; 100% RH, two weeks): approximately equal weight (1:1) mixture of form O and sesquihydrate

SMILES: COc1c(N2CCNC(C)C2)c(F)cc2c(=O)c(C(=O)O)cn(C3CC3)c12 (stereo not drawn) [form Ω, gatifloxacin]
- crystalline form found after humidity exposure ([1]; 80% RH, 1 week): approximately equal weight (1:1) mixture of form O and form Ω
- crystalline form found after humidity exposure ([1]; 100% RH, 1 week): approximately equal weight (1:1) mixture of form O and sesquihydrate

SMILES: COc1c(N2CCNC(C)C2)c(F)cc2c(=O)c(C(=O)O)cn(C3CC3)c12 (stereo not drawn) [hemihydrate, gatifloxacin]
- hygroscopicity [2]: hygroscopic

SMILES: COc1c(N2CCNC(C)C2)c(F)cc2c(=O)c(C(=O)O)cn(C3CC3)c12 (stereo not drawn) [pentahydrate, gatifloxacin]
- thermodynamic stability [3]: most thermodynamically stable form
- aqueous solubility [4]: lowest

SMILES: COc1c(N2CCNC(C)C2)c(F)cc2c(=O)c(C(=O)O)cn(C3CC3)c12 (stereo not drawn) [sesquihydrate, gatifloxacin]
- hygroscopicity [2]: less hygroscopic
- stability in manufacturing [5]: more stable
